Data published in article PMC5787485, “HDAC inhibitor PAC-320 induces G2/M cell cycle arrest and apoptosis in human prostate cancer” (Oncotarget, 2017).

Assays:
Experiment in all cases: fluorescent HDAC activity assay (BIOMOL kit) with purified HDAC
Type in all cases: biochemical
HDAC4 = HDAC4 (Homo sapiens, UniProt P56524)
HDAC2 = HDAC2 (Homo sapiens, UniProt Q92769)
HDAC6 = biological target: T1, HDAC6 (Homo sapiens, UniProt Q9UBN7)
T1 sequence (Q9UBN7 1-1215): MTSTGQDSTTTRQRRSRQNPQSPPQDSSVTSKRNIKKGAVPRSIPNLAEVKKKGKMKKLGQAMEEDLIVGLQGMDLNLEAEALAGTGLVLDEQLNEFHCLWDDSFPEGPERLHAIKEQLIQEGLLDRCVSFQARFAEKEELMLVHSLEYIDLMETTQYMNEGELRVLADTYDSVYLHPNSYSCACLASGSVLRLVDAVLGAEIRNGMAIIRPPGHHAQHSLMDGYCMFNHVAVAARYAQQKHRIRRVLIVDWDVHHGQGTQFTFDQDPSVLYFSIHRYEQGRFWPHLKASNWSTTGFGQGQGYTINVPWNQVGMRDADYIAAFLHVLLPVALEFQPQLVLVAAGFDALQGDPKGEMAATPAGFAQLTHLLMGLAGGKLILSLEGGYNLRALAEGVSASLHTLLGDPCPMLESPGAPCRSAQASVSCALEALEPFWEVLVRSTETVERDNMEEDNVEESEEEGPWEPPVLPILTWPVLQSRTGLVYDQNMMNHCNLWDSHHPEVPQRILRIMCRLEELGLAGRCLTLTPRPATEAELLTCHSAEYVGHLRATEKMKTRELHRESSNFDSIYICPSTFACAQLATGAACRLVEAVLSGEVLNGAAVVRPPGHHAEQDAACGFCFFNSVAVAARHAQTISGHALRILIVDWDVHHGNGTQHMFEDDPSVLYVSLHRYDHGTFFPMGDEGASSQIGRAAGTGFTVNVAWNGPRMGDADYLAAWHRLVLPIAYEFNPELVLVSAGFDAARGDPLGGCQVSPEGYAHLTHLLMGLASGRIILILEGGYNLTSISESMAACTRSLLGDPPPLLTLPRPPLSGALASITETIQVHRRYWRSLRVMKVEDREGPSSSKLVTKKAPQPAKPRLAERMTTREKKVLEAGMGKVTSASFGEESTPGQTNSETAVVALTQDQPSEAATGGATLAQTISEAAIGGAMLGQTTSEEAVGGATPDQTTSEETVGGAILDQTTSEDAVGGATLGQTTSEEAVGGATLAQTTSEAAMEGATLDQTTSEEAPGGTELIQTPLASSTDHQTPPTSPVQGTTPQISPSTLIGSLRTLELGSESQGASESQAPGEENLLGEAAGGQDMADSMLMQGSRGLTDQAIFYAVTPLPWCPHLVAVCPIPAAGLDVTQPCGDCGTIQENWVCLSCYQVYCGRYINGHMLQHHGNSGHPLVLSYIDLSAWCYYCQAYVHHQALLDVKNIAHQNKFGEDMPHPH

HDAC 3 = biological target: T2, HDAC 3 (Homo sapiens, UniProt O15379)
T2 construct: gene HDAC3

HDAC5 = HDAC5 (Homo sapiens, UniProt Q9UQL6)
HDAC1 = HDAC1 (Homo sapiens, UniProt Q13547)
Sequence of HDAC1 (Q13547 whole entry): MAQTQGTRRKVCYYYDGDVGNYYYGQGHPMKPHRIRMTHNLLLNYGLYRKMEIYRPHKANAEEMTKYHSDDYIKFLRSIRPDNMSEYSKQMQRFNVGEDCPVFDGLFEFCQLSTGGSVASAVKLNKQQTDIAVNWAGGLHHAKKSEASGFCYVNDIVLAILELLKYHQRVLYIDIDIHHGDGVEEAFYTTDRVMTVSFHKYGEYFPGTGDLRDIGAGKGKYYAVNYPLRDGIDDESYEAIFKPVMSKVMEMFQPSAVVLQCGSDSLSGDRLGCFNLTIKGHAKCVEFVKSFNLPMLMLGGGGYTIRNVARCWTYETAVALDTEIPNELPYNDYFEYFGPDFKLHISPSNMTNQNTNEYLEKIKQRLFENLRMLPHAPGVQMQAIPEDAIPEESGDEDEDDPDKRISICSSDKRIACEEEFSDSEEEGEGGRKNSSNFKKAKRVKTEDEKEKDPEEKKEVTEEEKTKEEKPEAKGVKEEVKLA

Sequence of HDAC5 (Q9UQL6 whole entry): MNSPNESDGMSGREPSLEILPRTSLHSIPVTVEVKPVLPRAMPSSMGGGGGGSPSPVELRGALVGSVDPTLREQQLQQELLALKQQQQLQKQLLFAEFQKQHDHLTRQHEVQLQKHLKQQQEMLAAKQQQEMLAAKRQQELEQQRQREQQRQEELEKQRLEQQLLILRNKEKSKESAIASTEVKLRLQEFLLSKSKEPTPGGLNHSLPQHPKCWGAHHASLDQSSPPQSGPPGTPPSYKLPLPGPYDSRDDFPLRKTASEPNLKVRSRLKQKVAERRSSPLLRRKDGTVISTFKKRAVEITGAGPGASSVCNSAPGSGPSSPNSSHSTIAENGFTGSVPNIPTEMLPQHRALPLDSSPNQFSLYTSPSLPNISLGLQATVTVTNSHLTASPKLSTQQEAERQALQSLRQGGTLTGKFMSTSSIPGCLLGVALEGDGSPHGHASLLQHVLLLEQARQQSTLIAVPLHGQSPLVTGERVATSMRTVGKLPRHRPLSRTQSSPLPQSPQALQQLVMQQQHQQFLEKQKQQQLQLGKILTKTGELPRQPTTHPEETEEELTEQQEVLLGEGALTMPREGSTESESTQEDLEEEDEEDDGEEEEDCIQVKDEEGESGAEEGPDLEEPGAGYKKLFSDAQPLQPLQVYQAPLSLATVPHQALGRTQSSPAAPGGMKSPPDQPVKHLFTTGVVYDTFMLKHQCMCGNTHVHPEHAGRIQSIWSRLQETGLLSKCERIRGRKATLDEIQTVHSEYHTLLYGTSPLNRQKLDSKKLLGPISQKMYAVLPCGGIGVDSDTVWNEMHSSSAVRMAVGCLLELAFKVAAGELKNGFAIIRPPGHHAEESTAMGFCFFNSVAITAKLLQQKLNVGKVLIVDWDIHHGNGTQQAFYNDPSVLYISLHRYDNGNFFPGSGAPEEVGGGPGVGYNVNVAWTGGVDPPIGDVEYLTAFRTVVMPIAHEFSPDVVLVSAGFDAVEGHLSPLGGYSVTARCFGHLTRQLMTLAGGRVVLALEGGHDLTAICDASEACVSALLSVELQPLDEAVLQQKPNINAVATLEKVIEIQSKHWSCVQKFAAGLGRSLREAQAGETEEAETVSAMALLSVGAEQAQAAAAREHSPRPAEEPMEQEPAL
Sequence of HDAC2 (Q92769 whole entry): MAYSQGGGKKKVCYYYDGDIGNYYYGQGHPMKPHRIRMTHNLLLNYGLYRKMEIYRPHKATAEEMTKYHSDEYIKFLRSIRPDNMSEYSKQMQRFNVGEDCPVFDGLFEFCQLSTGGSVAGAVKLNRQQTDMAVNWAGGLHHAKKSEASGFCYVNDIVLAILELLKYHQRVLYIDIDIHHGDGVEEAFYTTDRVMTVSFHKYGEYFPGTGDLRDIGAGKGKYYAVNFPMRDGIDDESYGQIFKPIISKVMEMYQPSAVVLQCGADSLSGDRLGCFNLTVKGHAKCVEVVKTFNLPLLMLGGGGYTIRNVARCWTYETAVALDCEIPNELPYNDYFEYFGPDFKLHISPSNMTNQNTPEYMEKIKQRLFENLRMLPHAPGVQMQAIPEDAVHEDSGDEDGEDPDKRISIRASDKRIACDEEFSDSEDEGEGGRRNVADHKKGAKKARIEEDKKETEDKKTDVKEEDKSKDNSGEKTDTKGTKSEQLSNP
T2 sequence (O15379 whole entry): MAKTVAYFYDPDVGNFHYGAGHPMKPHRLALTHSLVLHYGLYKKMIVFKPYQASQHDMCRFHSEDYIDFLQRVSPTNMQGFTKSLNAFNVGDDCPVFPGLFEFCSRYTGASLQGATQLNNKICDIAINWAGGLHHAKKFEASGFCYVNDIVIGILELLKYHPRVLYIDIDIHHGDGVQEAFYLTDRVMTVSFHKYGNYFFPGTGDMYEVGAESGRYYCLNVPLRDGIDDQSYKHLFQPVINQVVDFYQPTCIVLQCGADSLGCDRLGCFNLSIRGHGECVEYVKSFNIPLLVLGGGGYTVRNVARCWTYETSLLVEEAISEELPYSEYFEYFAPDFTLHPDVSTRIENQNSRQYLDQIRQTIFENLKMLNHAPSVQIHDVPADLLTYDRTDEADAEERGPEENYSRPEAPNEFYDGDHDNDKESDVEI
Sequence of HDAC4 (P56524 whole entry): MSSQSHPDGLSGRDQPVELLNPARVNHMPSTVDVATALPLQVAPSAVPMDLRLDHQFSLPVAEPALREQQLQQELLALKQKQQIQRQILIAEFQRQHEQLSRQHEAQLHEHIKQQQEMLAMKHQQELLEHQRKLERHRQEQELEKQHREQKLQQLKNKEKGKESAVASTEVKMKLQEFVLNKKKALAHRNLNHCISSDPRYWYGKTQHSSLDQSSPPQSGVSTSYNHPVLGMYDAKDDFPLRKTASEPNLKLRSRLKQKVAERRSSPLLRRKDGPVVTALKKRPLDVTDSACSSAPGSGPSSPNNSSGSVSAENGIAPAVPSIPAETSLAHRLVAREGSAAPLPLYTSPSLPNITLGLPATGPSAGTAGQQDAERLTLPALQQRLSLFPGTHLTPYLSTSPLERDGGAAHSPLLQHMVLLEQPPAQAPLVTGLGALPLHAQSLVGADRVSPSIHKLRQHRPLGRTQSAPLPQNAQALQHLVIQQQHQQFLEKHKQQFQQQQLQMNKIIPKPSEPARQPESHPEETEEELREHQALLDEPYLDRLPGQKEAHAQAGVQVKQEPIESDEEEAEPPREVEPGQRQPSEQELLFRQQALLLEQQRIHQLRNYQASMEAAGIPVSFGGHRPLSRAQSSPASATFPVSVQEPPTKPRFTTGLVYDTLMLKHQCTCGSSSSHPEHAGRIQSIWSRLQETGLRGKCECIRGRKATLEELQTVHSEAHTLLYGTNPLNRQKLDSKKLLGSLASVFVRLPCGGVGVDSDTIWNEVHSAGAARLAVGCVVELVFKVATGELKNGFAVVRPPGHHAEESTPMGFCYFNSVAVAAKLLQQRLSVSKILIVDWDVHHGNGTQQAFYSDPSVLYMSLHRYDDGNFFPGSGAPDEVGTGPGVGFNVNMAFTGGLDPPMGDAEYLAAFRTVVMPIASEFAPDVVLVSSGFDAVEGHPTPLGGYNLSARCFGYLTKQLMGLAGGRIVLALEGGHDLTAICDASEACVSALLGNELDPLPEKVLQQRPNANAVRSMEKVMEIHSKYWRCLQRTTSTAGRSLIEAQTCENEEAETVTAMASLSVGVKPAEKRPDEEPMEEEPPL

IC50 (HDAC4): 0.45 to 1.39 µM | IC50 (HDAC2): 0.45 to 1.39 µM | IC50 (HDAC6): 0.45 to 1.39 µM | IC50 (HDAC 3): 0.45 to 1.39 µM | IC50 (HDAC5): 0.45 to 1.39 µM | IC50 (HDAC1): 0.45 to 1.39 µM
Substance: PAC-320
